Results from ChEMBL document CHEMBL1137042, “Synthesis and cytotoxic activity of novel derivatives of 4'-demethylepipodophyllotoxin” (Bioorg Med Chem Lett, 2004).

Tests used:
HL-60 = assay: In vitro inhibitory concentration required against human leukemic HL-60 cell line was determined after 48 hrs of drug exposure using MTT method; assay type: functional, cell-based; conditions: HL-60, 48 h
A549 = assay: In vitro inhibitory concentration required against human lung carcinoma A-549 cell line was determined after 72 hrs of drug exposure using SRB method; assay type: functional, cell-based; conditions: A549, 72 h

| Compound | IC50 (HL-60) [nM] | IC50 (A549) [nM] |
| --- | --- | --- |
| COc1cc([C@@H]2c3cc4c(cc3[C@@H](NC(CSC)C(=O)OCCCCCn3cc(F)c(=O)[nH]c3=O)[C@H]3COC(=O)[C@H]23)OCO4)cc(OC)c1O (stereo not given in full) | 40 | 230 |
| COc1cc([C@@H]2c3cc4c(cc3[C@@H](NC(C(=O)OCCCCCn3cc(F)c(=O)[nH]c3=O)C(C)Cc3ccccc3)[C@H]3COC(=O)[C@H]23)OCO4)cc(OC)c1O (stereo not given in full) | 300 | 530 |
| COc1cc([C@@H]2c3cc4c(cc3[C@@H](NC(Cc3ccccc3)C(=O)OCCCCn3cc(F)c(=O)[nH]c3=O)[C@H]3COC(=O)[C@H]23)OCO4)cc(OC)c1O (stereo not given in full) | 420 | 300 |
| COc1cc([C@@H]2c3cc4c(cc3[C@@H](NC(CSC)C(=O)OCCCn3cc(F)c(=O)[nH]c3=O)[C@H]3COC(=O)[C@H]23)OCO4)cc(OC)c1O (stereo not given in full) | 990 | 290 |
| COc1cc([C@@H]2c3cc4c(cc3[C@@H](NC(CSC)C(=O)OCCCCn3cc(F)c(=O)[nH]c3=O)[C@H]3COC(=O)[C@H]23)OCO4)cc(OC)c1O (stereo not given in full) | 50 | 1870 |
| COc1cc([C@@H]2c3cc4c(cc3[C@@H](NC(Cc3ccccc3)C(=O)OCCCCCn3cc(F)c(=O)[nH]c3=O)[C@H]3COC(=O)[C@H]23)OCO4)cc(OC)c1O (stereo not given in full) | 40 | < 10 |
| COc1cc([C@@H]2c3cc4c(cc3[C@@H](NC(C(=O)OCCCCn3cc(F)c(=O)[nH]c3=O)C(C)Cc3ccccc3)[C@H]3COC(=O)[C@H]23)OCO4)cc(OC)c1O (stereo not given in full) | 530 | 740 |
| COc1cc([C@@H]2c3cc4c(cc3[C@@H](NC(Cc3ccccc3)C(=O)OCCCn3cc(F)c(=O)[nH]c3=O)[C@H]3COC(=O)[C@H]23)OCO4)cc(OC)c1O (stereo not given in full) | 310 | 480 |
| COc1cc([C@@H]2c3cc4c(cc3[C@@H](NC(C(=O)OCCCn3cc(F)c(=O)[nH]c3=O)C(C)Cc3ccccc3)[C@H]3COC(=O)[C@H]23)OCO4)cc(OC)c1O (stereo not given in full) | 240 | 180 |
| O=c1[nH]cc(F)c(=O)[nH]1 [FLUOROURACIL] | 65300 | 50500 |
